Test results published in PubChem BioAssay AID624408 (The Scripps Research Institute Molecular Screening Center, 2012).
The source made the active and inactive calls.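 Rule for the calls: active = IC50 at or below 10 µM; inactive = IC50 above 10 µM.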

System: parental CHO-K1, ATP-induced calcium, Fluo-8 fluorescence
Assay: nonselective Gq inhibitors in untransfected CHO cells – cell-based, fluorescence, dose response, artefact control for OX1R antagonist project, late-stage follow-up (AID 624408)

CCSC1=C(C#N)C(c2ccccc2Cl)C(C(=O)c2cccs2)C(O)(C(F)(F)F)N1 (stereo unspecified)
IC50: 21.8 µM (inactive)

Cc1ccccc1NC(=O)C1CCCN1S(=O)(=O)c1ccccc1C(F)(F)F (stereo unspecified)
IC50: > 59.6 µM (inactive)

Fc1cccc(Nc2nc3ccccc3n3cnnc23)c1
IC50: > 59.6 µM (inactive)

COc1cc(OC)c(-c2nc3ccccc3s2)cc1OC
IC50: > 59.6 µM (inactive)

Cc1noc(C)c1COc1ccc(C(=O)OCC(=O)N2CC(=O)Nc3ccccc32)cc1
IC50: > 59.6 µM (inactive)

Cc1ccc(-c2csc3nnc(SCC(=O)Nc4nsc(-c5ccccc5)n4)n23)cc1
IC50: > 59.6 µM (inactive)

O=C(CSc1ccc(-c2ccccc2)nn1)c1cccs1
IC50: > 59.6 µM (inactive)

CCn1c(SCC(=O)Nc2ccc3c(c2)c2ccccc2n3CC)nnc1-c1cnccn1
IC50: > 59.6 µM (inactive)

CSc1cccc(N2CC(C(=O)NCCN3C(=O)S/C(=C\c4cccnc4)C3=O)CC2=O)c1 (stereo unspecified)
IC50: > 59.6 µM (inactive)

Cc1c(NS(=O)(=O)c2cccc(C(=O)OCC(=O)N(C)C3CCCCC3)c2)c(=O)n(-c2ccccc2)n1C
IC50: > 59.6 µM (inactive)

CCOC(=O)N1CCN(C(=O)CSc2ccc(-c3ccccc3)nn2)CC1
IC50: > 59.6 µM (inactive)

Cc1cccc(C=NNC(=O)c2cc3c(s2)-c2ccccc2CC3)c1
IC50: > 59.6 µM (inactive)

O=c1cc(CN2CC(O)Cc3ccc4ccccc4c32)nc2sccn12 (stereo unspecified)
IC50: 55.4 µM (inactive)

COc1cccc(/C=C2/Oc3ccccc3N(CC(=O)NCC3CCCO3)C2=O)c1 (stereo unspecified)
IC50: > 59.6 µM (inactive)

O=C(CN1C(=O)/C(=C\c2cccc(Br)c2)Oc2ccccc21)NCC1CCCO1 (stereo unspecified)
IC50: > 59.6 µM (inactive)

Cc1cccc(NC(=O)[C@@H]2CCCN2S(=O)(=O)c2ccc(Cl)cc2)c1
IC50: > 59.6 µM (inactive)

CCN(CC)c1ccc(NC(=O)Cn2c(C(C)NC(=O)c3ccccc3)nc3ccccc32)cc1 (stereo unspecified)
IC50: > 59.6 µM (inactive)

CCc1cc(C(=O)OCC(=O)N2CCC(c3ccccc3)=N2)sc1C
IC50: > 59.6 µM (inactive)

COCCCNC(=O)CCC(=O)NNc1nc2ccccc2c2nc(-c3ccccc3)nn12
IC50: > 59.6 µM (inactive)

Cc1cc(Cl)ccc1OCCCC(=O)NCCN1C(=O)S/C(=C\c2cccnc2)C1=O
IC50: 7.22 µM

COc1ccc(OC)c(S(=O)(=O)NCC(c2ccco2)N2CCc3ccccc32)c1 (stereo unspecified)
IC50: > 59.6 µM (inactive)

CC(=C/c1ccccc1)/C=C1/SC(N2CCOCC2)=NC1=O
IC50: 52.1 µM (inactive)

CSc1cccc(NC(=O)C2CCCN2S(=O)(=O)c2ccc(Br)s2)c1 (stereo unspecified)
IC50: 20.4 µM (inactive)

CCOc1ccccc1C(=O)Nc1ccc2nc3n(c(=O)c2c1)CCCCC3
IC50: > 59.6 µM (inactive)

CCc1cc2c(SCC(=O)N(CC)c3c(N)n(Cc4ccccc4)c(=O)[nH]c3=O)ncnc2s1
IC50: > 59.6 µM (inactive)

CN(N=Cc1cc([N+](=O)[O-])ccc1O)c1ccccc1
IC50: > 59.6 µM (inactive)
